{"source": "patent US10966995B2", "about": "“Use of secoisolariciresinol diglucosides (SDGS) and related compounds for protection against radiation and chemical damage” (THE TRUSTEES OF THE UNIVERSITY OF PENNSYLVANIA, priority 2014, dated 2021)", "key": {"human epithelial cells": {"test_system": "human epithelial cells", "experiment": "BaP-induced DNA adduct formation", "type": "cell-based", "conditions": "given alone or in combination", "source_text": "Similarly, SDG prevents genotoxic stress in human epithelial cells exposed to BaP. Exposure of cells to a potent carcinogen such as BaP, induces genotoxic stress as indicated by increased levels of p53 protein (FIG. 25). […] SDG also prevents oxidative DNA damages in human epithelial cells exposed to BaP. Exposure of cells to a potent carcinogen such as BaP, induces oxidative DNA damage as indicated by increased levels of gamma-H2AX, a marker for double-stranded DNA breaks (FIG. 26). […] Furthermore, SDG prevents DNA adduct formation in human epithelial cells exposed to BaP. Exposure of cells to a potent carcinogen such as BaP, induces the formation of DNA adducts (FIG. 27). DNA adducts are pieces of DNA covalently linked to a carcinogen and is directly linked to the development of malignancy. The DNA adduct levels is decreased by the presence of SDG or its metabolites ED and EL given alone or in combination."}, "calf thymus DNA [1]": {"test_system": "calf thymus DNA", "experiment": "Radiation-induced calf thymus DNA fragmentation assay", "type": "biochemical", "conditions": "for Radioprotective properties of SDG and metabolites compared / Radioprotection in calf thymus DNA fragmentation assay at low concentrations / High mol. wt. DNA form after radiation exposure: 50 Gy; for Radioprotective properties of SDG and metabolites compared: 10 μM of each agent; for Radioprotection in calf thymus DNA fragmentation assay at low concentrations: 0.5-10 μM; for High mol. wt. DNA form after radiation exposure: 25, 50, 100 and 250 μM; for Radiation-induced generation of low mol. wt. fragments: at the concentration of 5 (unit not given); for Radiation induced generation of low mol. wt. fragments: at the lowest concentration tested", "experimental": "(§1) Plasmid DNA (pBR322) or calf thymus DNA samples with or without varying concentrations of SDG (R,R), SDG (S,S) and SDG (commercial) were exposed to γ-radiation with a Mark 1 cesium (Cs-137) irradiator (J. L. Shepherd, San Fernando, Calif.) at a dose rate of 1.7 Gy/min in phosphate buffered saline, pH 7.4 (PBS).\nThe effect of test compounds on radiation-induced strand breaks in DNA was determined using calf thymus DNA (Sigma, St. Louis, Mo.). DNA (500 ng) in PBS (pH 7.4) was mixed with varying concentrations (25-250 μM) of SDG (R,R), SDG (S,S) and SDG (commercial) and irradiated at 50 Gy for 30 min. A second series of experiments were performed at varying concentrations ranging from 0.5-10 μM. Samples were mixed with loading dye and subjected to agarose (1%) gel electrophoresis in TAE buffer (pH, 8.3) at 100 V. The gel was stained with ethidium bromide (0.5 μg/ml) for 40 min, washed for 20 min and then visualized on a UV trans-illuminator (Bio-Rad, Hercules, Calif.). The captured gel images were scanned and the density of the calf thymus DNA fragments was determined by Gel-Pro image analyzer program (Media Cybernetics, Silver Spring, Md.). The density of the low mol. wt (<6,000 bps) and the high mol. wt (>6,000 bps) fragments of calf thymus DNA was expressed as % of the total density (low mol wt.+high mol. wt.)."}, "[2]": {"experiment": "Hypochlorite scavenging with APF/HPF fluorescent probes (sodium hypochlorite)", "conditions": "0.5 μM; similar to silibinin", "experimental": "The fluorescence of ROS probes APF and HPF in PBS was measured at excitation/emission at 490 nm/515 nm in presence of hypochlorite or after γ-radiation exposure. Data is expressed as relative fluorescence units (RFU)."}, "Plasmid DNA (pBR322)": {"test_system": "Plasmid DNA (pBR322)", "experiment": "Plasmid DNA relaxation assay after γ-radiation", "type": "biochemical", "conditions": "for pEC50: 25 Gy γ radiation, 25-250 μM tested, read-out: EC50 (effective concentration needed to prevent 50% of plasmid relaxation); for SC and OC forms of plasmid DNA: 25 Gy, 25, 50, 100 and 250 μM", "experimental": "as §1\nThe effect of test compounds on radiation-induced strand breaks and supercoil (SC) to open coil (OC) conversion was determined using plasmid DNA (pBR322) (Life Technologies, Carlsbad, Calif.). Plasmid DNA (500 ng) in PBS (pH 7.4) was mixed with various concentrations (25-250 μM) of SDG (R,R), SDG (S,S) and SDG (commercial) and irradiated at 25 Gy in PBS. At 30 min post radiation exposure, samples were mixed with loading dye and subjected to agarose (1%) gel electrophoresis in TAE buffer (pH, 8.3) at 100 V. The gel was stained with ethidium bromide (0.5 μg/ml) for 40 min, washed for 20 min and then visualized on a UV trans-illuminator (Bio-Rad, Hercules, Calif.). The captured gel images were scanned and the density of the open coiled (OC) and super coiled (SC) plasmid DNA bands determined by Gel-doc image analyzer program. The density of the SC and OC plasmid DNA was expressed as % of the total density (OC+SC)."}, "calf thymus DNA [3]": {"test_system": "calf thymus DNA", "experiment": "Hypochlorite-induced damage to calf thymus DNA", "type": "biochemical", "conditions": "0.5 mM hypochlorite; test agents 1.0 μM", "experimental": "Calf thymus or plasmid DNA was incubated with hypochlorite for 2 hrs at 37° C. DNA samples were subjected to agarose (1%) gel electrophoresis and analyzed."}}, "note": "pEC50: −log10 of the molar value.", "data": [{"compound": "OC[C@H](Cc1cccc(O)c1)[C@H](CO)Cc1cccc(O)c1", "note": "[ED, enterodiol]", "values": [{"measurement": "DNA adduct levels", "setting": "human epithelial cells", "result": "decreased"}, {"measurement": "Radioprotective properties of SDG and metabolites compared", "setting": "calf thymus DNA [1]", "result": "equipotent"}]}, {"compound": "O=C1OC[C@H](Cc2cccc(O)c2)[C@H]1Cc1cccc(O)c1", "note": "[EL, enterolactone]", "values": [{"measurement": "DNA adduct levels", "setting": "human epithelial cells", "result": "decreased"}, {"measurement": "Radioprotective properties of SDG and metabolites compared", "setting": "calf thymus DNA [1]", "result": "equipotent"}]}, {"compound": "COc1cc(C[C@@H](CO[C@@H]2O[C@H](CO)[C@@H](O)[C@H](O)[C@H]2O)[C@H](CO[C@@H]2O[C@H](CO)[C@@H](O)[C@H](O)[C@H]2O)Cc2ccc(O)c(OC)c2)ccc1O", "note": "[SDG (R,R), secoisolariciresinol diglucoside]", "values": [{"measurement": "ClO^− scavenging potency", "setting": "[2]", "result": "comparable potency"}, {"measurement": "Radioprotection in calf thymus DNA fragmentation assay at low concentrations", "setting": "calf thymus DNA [1]", "result": "strong radioprotection characteristics even at low concentrations"}, {"measurement": "High mol. wt. DNA form after radiation exposure", "setting": "calf thymus DNA [1]", "result": "radioprotective properties"}, {"measurement": "Radiation-induced generation of low mol. wt. fragments", "setting": "calf thymus DNA [1]", "result": "completely prevented"}, {"measurement": "Radiation induced generation of low mol. wt. fragments", "setting": "calf thymus DNA [1]", "result": "completely prevented"}, {"measurement": "pEC50", "setting": "Plasmid DNA (pBR322)", "result": 3.89}, {"measurement": "SC and OC forms of plasmid DNA", "setting": "Plasmid DNA (pBR322)", "result": "prevented the radiation-induced damage to plasmid DNA in a concentration-dependent manner"}]}, {"compound": "COc1cc(C[C@H](CO[C@@H]2O[C@H](CO)[C@@H](O)[C@H](O)[C@H]2O)[C@@H](CO[C@@H]2O[C@H](CO)[C@@H](O)[C@H](O)[C@H]2O)Cc2ccc(O)c(OC)c2)ccc1O", "note": "[SDG (S,S), secoisolariciresinol diglucoside]", "values": [{"measurement": "ClO^− scavenging potency", "setting": "[2]", "result": "comparable potency"}, {"measurement": "Radioprotection in calf thymus DNA fragmentation assay at low concentrations", "setting": "calf thymus DNA [1]", "result": "strong radioprotection characteristics even at low concentrations"}, {"measurement": "High mol. wt. DNA form after radiation exposure", "setting": "calf thymus DNA [1]", "result": "the proportion of the high mol. wt. DNA form increased significantly"}, {"measurement": "Radiation-induced generation of low mol. wt. fragments", "setting": "calf thymus DNA [1]", "result": "completely prevented"}, {"measurement": "Radiation induced generation of low mol. wt. fragments", "setting": "calf thymus DNA [1]", "result": "completely prevented"}, {"measurement": "pEC50", "setting": "Plasmid DNA (pBR322)", "result": 3.85}, {"measurement": "SC and OC forms of plasmid DNA", "setting": "Plasmid DNA (pBR322)", "result": "the proportion of the SC form increased and the density of OC form decreased significantly"}]}, {"compound": "COc1cc(C[C@@H](CO[C@@H]2O[C@H](CO)[C@@H](O)[C@H](O)[C@H]2O)[C@H](CO[C@@H]2O[C@H](CO)[C@@H](O)[C@H](O)[C@H]2O)Cc2ccc(O)c(OC)c2)ccc1O", "note": "[SDG (commercial), Secoisolariciresinol Diglucoside]", "values": [{"measurement": "ClO^− scavenging potency", "setting": "[2]", "result": "comparable potency"}, {"measurement": "High mol. wt. DNA form after radiation exposure", "setting": "calf thymus DNA [1]", "result": "radioprotective properties"}, {"measurement": "pEC50", "setting": "Plasmid DNA (pBR322)", "result": 4.01}]}, {"compound": "COc1cc(CC(CO)C(CO)Cc2ccc(O)c(OC)c2)ccc1O", "note": "(centres unmarked) [SECO, 2,3-bis (3-methoxy-4-hydroxybenzyl) butane-1,4-diol]", "values": [{"measurement": "Radioprotective properties of SDG and metabolites compared", "setting": "calf thymus DNA [1]", "result": "equipotent"}]}, {"compound": "O=c1c(O)c(-c2ccc(O)c(O)c2)oc2cc(O)cc(O)c12", "note": "[quercetin]", "values": [{"measurement": "Hypochlorite-induced damage to genomic DNA", "setting": "calf thymus DNA [3]", "result": "comparable"}]}]}
